The values that follow come from patent US5939096A, “Liposome drug-loading method and composition” (priority 1997, dated 1999).

For orientation: Papp means a coefficient for how fast a substance crosses the barrier. A word on the pKa: it is the negative logarithm of the acid dissociation constant.

The conditions of data set [1]: n-octanol/water, cited from earlier work.
The conditions of data set [2]: not told, cited from earlier work.
The nature of data set [3]: Permeability coefficient in HPC/cholesterol extruded vesicles. The conditions noted are these: not told, permeability coefficient P, 60/40 HPC/cholesterol extruded vesicles (Table II).
Experimental: ^e in 60/40 (mol/mol) HPC/cholesterolextruded vesicles, at 25°
^e in 60/40 (mol/mol) HPC/cholesterolextruded vesicles.
For data set [4] the following is noted: Table II; cited from earlier work.
A short description of data set [5]: Loading and calcium ionophore (A23187)-promoted release of entrapped nalidixic acid. Here is the method: (FIG. 8, solid line) and 60° C. (broken line), respectively.
The experiment was carried out at two different temperatures to investigate how changes in lipid phase (i.e., gel versus liquid-crystalline) affects the penetration of molecules into the bilayer. When the suspension was incubated at 25° C.
A calcium ionophore, A23187, (10 micromolar) was added at either t=700 s (25° C.; FIG. 8--solid line) or at 350 s (60° C.; FIG. 8--broken line), and the fluorescence was monitored over the course of the experiment.

For data set [6] the following is noted: pH 9.

Where two headings read alike, the source gives them in different places.

On to 5(6)-carboxyfluorescein, for which the “partition coefficient Kp” value in data set [1] (pH 6.9) is given as 2.8 × 10^-3; in data set [1] (pH 8), 6.0 × 10^-5. Moreover, the “permeability coefficient P” value in data set [2] (pH 7) was 8.1e-05 ×10⁻⁶ cm/s; in data set [2] (pH 8.2) it was 7.2e-07 ×10⁻⁶ cm/s.

As to `CCn1cc(C(=O)O)c(=O)c2ccc(C)nc21` [nalidixic acid], the apparent permeability (Papp) in data set [3] (25° C.) worked out at 0.014 ×10⁻⁶ cm/s; in data set [3] (60° C.) it was 0.17 ×10⁻⁶ cm/s. The pKa in data set [4] is 6.13. The results for the “loading t1/2” value in data set [5] (25° C.) and in data set [5] (60° C.) were 84 s and 7 s, respectively. Further, the “enhancement of loading rate” value in data set [5] (60° C. versus 25° C.) is listed as “one order of magnitude”.

Consider `O=S(=O)(O)c1cc(O)c2ccc3c(S(=O)(=O)O)cc(S(=O)(=O)O)c4ccc1c2c34` [pyranine, 8-Hydroxypyrene-1,3,6-trisulfonic acid], for which, in data set [6], the “n-octanol/water partition coefficient Kp” value is recorded as < 3 × 10^-5.
